{"source": "patent US10041936B2", "about": "“Neuronal cells cultured on microparticles and methods of using same” (The Regents of the University of California, priority 2009, dated 2018)", "system": "Rat hippocampal neurons", "experiment": "Culture of hippocampal neurons on PLL-coated beads in media with mitotic inhibitor", "format": "cell-based", "protocol": "Borosilicate Glass Spheres (MO-SCI Specialty Products, Rolla, Mo.) were sterilized in an ethanol solution overnight, and dried under vacuum. Then the beads were incubated in a borate buffer solution for one hour, before being left in PLL solution overnight. Hippocampi were removed from embryonic day 18 (E18) rats and treated with trypsin for 20 min at 37° C., followed by washing and trituration. Dissociated cells were plated at 75,000 cells/cm^2 on poly-lysine-coated glass beads and cultured in neurobasal medium supplemented with 2 mM Glutamax, 2% FBS, and 2% B-27. Cells were transfected with Lipofectamine 2000 (Invitrogen) or they were infected with lenti virus after 5-15 days after dissociation and analyzed 2-14 days after infection.\nRat hippocampal neurons were selected as model mammalian brain neurons. Following dissection at a late embryonic stage (E18), or early postnatal stage (P4), the neurons were dissociated and cultured on beads coated with poly-L-lysine (PLL) to enhance cell adhesion and to support maturation.(13, 14) The neurons were grown on the beads using standard techniques developed for conventional 2D cultures (Pautot et al., 2008). […] However, a small number of supporting glial cells, which contribute to neuronal development by stimulating neuron growth and maturation, were also present. […]"}
{"smiles": "Nc1ccn([C@@H]2O[C@H](CO)[C@@H](O)[C@@H]2O)c(=O)n1", "note": "[araC]", "values": [{"measurement": "neuron outgrowth and branching", "setting": "araC added to the culture media, no conditioned media", "value": "slowed"}, {"measurement": "growth of neurons on the beads", "setting": "araC combined with conditioned media from glial feeder cell cultures, more than 3 weeks", "value": "robust growth"}]}
